Data published in ChEMBL document CHEMBL1154517, “Antimitotic activity of two macrocyclic bis(bibenzyls), isoplagiochins A and B from the Liverwort Plagiochila fruticosa” (Bioorg Med Chem Lett, 2009).

Assay: Inhibition of tubulin polymerization

## Oc1ccc2c(c1)CCc1ccc(O)c(c1)-c1cc(ccc1O)CCc1cccc(c1)O2 [DIHYDROISOPLAGIOCHIN A]
  IC50: > 100 µM

## Oc1ccc2cc1-c1cc(ccc1O)CCc1c(ccc(O)c1O)Oc1cccc(c1)CC2 [DIHYDROISOPLAGIOCHIN B]
  IC50: > 100 µM

## Oc1ccc2c(c1)CCc1ccc(O)c(c1)-c1cc(ccc1O)/C=C\c1cccc(c1)O2 [ISOPLAGIOCHIN A]
  IC50: 50 µM

## Oc1ccc2cc1-c1cc(ccc1O)CCc1c(ccc(O)c1O)Oc1cccc(c1)/C=C\2 [ISOPLAGIOCHIN B]
  Activity: Dose-dependent effect
  IC50: 25 µM

## CC[C@]1(O)C[C@@H]2CN(CCc3c([nH]c4ccccc34)[C@@](C(=O)OC)(c3cc4c(cc3OC)N(C)[C@H]3[C@@](O)(C(=O)OC)[C@H](OC(C)=O)[C@]5(CC)C=CCN6CC[C@]43[C@@H]65)C2)C1 [VINBLASTINE]
  IC50: 2 µM
